# Measurements from ChEMBL document CHEMBL5331112, “Recent Advances in Pro-PROTAC Development to Address On-Target Off-Tumor Toxicity” (J Med Chem, 2023).
# Assays:
# SU-DHL-1 = assay: Anticancer activity against human SU-DHL-1 cells assessed as cell growth inhibition; type: functional, cell-based
# MCF7 [1] = assay: Anticancer activity against human MCF7 cells assessed as cell growth inhibition CCK8 assay; type: functional, cell-based
# MCF7 [2] = assay: Anticancer activity against human MCF7 cells xenografted in mouse assessed as cell growth inhibition […] relative to control; type: functional
# [3] = target: von Hippel-Lindau disease tumor suppressor/Bromodomain-containing protein 4 (Homo sapiens, UniProt O60885+P40337); assay: PROTAC activity at VHL/BRD4 in human MCF7 cells assessed as degradation of BRD4 incubated by Western blot assay; type: cell-based
# Sequence of von Hippel-Lindau disease tumor suppressor/Bromodomain-containing protein 4 (P40337 whole entry, looked up, other chains not shown): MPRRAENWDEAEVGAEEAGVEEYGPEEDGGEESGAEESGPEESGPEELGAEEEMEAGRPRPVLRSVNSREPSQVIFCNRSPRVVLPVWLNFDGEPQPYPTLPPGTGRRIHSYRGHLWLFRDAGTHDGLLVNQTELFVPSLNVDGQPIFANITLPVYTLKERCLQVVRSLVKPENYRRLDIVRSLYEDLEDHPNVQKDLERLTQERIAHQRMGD
# [4] = Cytotoxicity against human HFF-1 cells assessed as cell growth inhibition; type: toxicity, cell-based
smiles,measurement,setting,value
Cc1cc(Nc2ncc(Cl)c(Nc3ccccc3S(=O)(=O)C(C)C)n2)c(OC(C)C)cc1C1CCN(C(=O)CCCC(=O)N[C@H](C(=O)N2C[C@H](OC(=O)CCCCn3cc(CNC(=O)CC[C@H](NC(=O)c4ccc(NCc5cnc6nc(N)[nH]c(=O)c6n5)cc4)C(=O)O)nn3)C[C@H]2C(=O)N[C@@H](C)c2ccc(-c3scnc3C)cc2)C(C)(C)C)CC1,IC50,SU-DHL-1,200 nM
CNC(=O)CCC(=O)OCCSSCCOC(=O)O[C@@H]1C[C@@H](C(=O)N[C@@H](C)c2ccc(-c3scnc3C)cc2)N(C(=O)[C@H](NC(=O)COCCOCCOCCNC(=O)C[C@@H]2N=C(c3ccc(Cl)cc3)c3c(sc(C)c3C)-n3c(C)nnc32)C(C)(C)C)C1,IC50,MCF7 [1],56.9 nM
same,TGI,MCF7 [2],77.5%
same,DC50,[3],22 nM
Cc1ncsc1-c1ccc([C@H](C)NC(=O)[C@@H]2C[C@@H](OC(=O)CCCCn3cc(CNC(=O)CC[C@H](NC(=O)c4ccc(NCc5cnc6nc(N)[nH]c(=O)c6n5)cc4)C(=O)O)nn3)CN2C(=O)[C@@H](NC(=O)COCCCOCCNC(=O)C[C@@H]2N=C(c3ccc(Cl)cc3)c3c(sc(C)c3C)-n3c(C)nnc32)C(C)(C)C)cc1,IC50,[4],> 10000 nM
